Oligonucleotides are written 5' to 3', each unit as a sugar letter and its base; * is a phosphorothioate linkage, no mark a phosphodiester; rarer units and linkages stand in square brackets, end groups in braces. Plain capitals give the bases only. e = 2'-O-(2-methoxyethyl) (MOE); [5mC] = 5-methylcytosine; d = 2'-deoxy (DNA)
Columns and labels:
Assay type in all cases: in vivo, mouse
ABCA1 mRNA = ABCA1 mRNA levels in C57BL/6 mice after TTC39B inhibition; details: 50 mg/kg/week, 6 weeks
Protocol: Four groups of five mice each were injected twice a week with 25 mg/kg (totaling 50 mg/kg/week) of ISIS 447114, ISIS 447118, ISIS 447143, or ISIS 447144 for 6 weeks. A control group of five mice was injected with phosphate buffered saline (PBS) twice a week for 6 weeks. Plasma samples were obtained before the start of treatment, at week 3 and at week 6. At the end of the treatment period, mice were fasted for 4 hours before being euthanized. Plasma and tissue samples were obtained for further analysis.
The effect of inhibition of TTC39B in mice on these proteins of reverse cholesterol transport was studied. RNA levels of ABCA1 were measured using murine primer probe set RTS1204 (forward sequence […], designated herein as SEQ ID NO: 97; reverse sequence […], designated herein as SEQ ID NO: 98; and probe sequence […], designated herein as SEQ ID NO: 99). RNA levels of apoA1 were measured using murine primer probe set RTS14737 (forward sequence […], designated herein as SEQ ID NO: 100; reverse sequence […], designated herein as SEQ ID NO: 101; and probe sequence […], designated herein as SEQ ID NO: 102). RNA levels of SRB1 were measured using murine primer probe set mSRB-1 (forward sequence […], designated herein as SEQ ID NO: 103; reverse sequence ATGCGACTTGTCAGGCTGG, designated herein as SEQ ID NO: 104; and probe sequence […], designated herein as SEQ ID NO: 105).

[1] = system: Apolipoprotein A-IV (ApoA4) mRNA; assay: PCR microarray analysis of liver, LDLr-/- mice: ApoA4; details: 6 weeks
Protocol: (§1) Four groups of five male mice each were injected with a total of 1.5, 5, 15, or 50 mg/kg/week of ISIS 447118 for 6 weeks. A group of five mice was injected with a total of 50 mg/kg/week of control oligonucleotide ISIS 141923 ([…], designated herein as SEQ ID NO: 112, which has no known murine target) for 6 weeks. A control group of five mice was injected with phosphate buffered saline (PBS) twice a week for 6 weeks. Plasma samples were obtained before the start of treatment, at week 3 and at week 6. At the end of the treatment period, the mice were euthanized. Plasma and tissue samples were obtained for further analysis.
(§2) Liver samples from the mice groups were analyzed using a commercial kit for PCR microarray analysis (SA Biosciences Corp., MD), according to the manufacturer's instructions. Genes involved in lipoprotein and cholesterol metabolism were compared with the PBS control.

[2] = Plasma cholesterol and triglycerides in LDLr-/- mice
Protocol: The LDLr knockout mice model is a model for familial hypercholesterolemia developed by Ishibashi et al (J Clin Invest 1993; 92: 883-893). On a normal chow diet, the mice have an average total cholesterol of 250 mg/dL due to increases in LDL and VLDL cholesterol. This model is therefore highly susceptible to atherosclerosis (Ishibashi et al Proc Natl Acad Sci USA 1994; 91: 4431-4435).
as §1
To investigate the effect of inhibition of TTC39B on triglycerides and cholesterol levels in the plasma, samples were collected on weeks 0, 3, and 6, and total plasma cholesterol, LDL cholesterol, HDL cholesterol, and triglycerides were analyzed on an Olympus AU400e Analyzer.

[3] = system: Proprotein convertase subtilisin/kexin type 9 (Pcsk9) mRNA; assay: PCR microarray analysis of liver, LDLr-/- mice: Pcsk9; details: 6 weeks
Protocol: as §1, §2

[4] = system: Mevalonate (diphospho) decarboxylase (Mvd) mRNA; assay: PCR microarray analysis of liver, LDLr-/- mice: Mvd; details: 6 weeks
Protocol: as §1, §2

[5] = system: Oxysterol binding protein-like 5 (Osbpl5) mRNA; assay: PCR microarray analysis of liver, LDLr-/- mice: Osbpl5; details: 6 weeks
Protocol: as §1, §2

Stabilin 1 (Stab1) mRNA = assay: PCR microarray analysis of liver, LDLr-/- mice: Stab1; details: 6 weeks
Protocol: as §1, §2

[6] = system: Low density lipoprotein receptor (Ldlr) mRNA; assay: PCR microarray analysis of liver, LDLr-/- mice: Ldlr; details: 6 weeks
Protocol: as §1, §2

[7] = system: Sterol O-acyltransferase 2 (Soat2) mRNA; assay: PCR microarray analysis of liver, LDLr-/- mice: Soat2; details: 6 weeks
Protocol: as §1, §2

[8] = 1.5 mg/kg/week, Week 0 (before treatment)
[9] = 5 mg/kg/week, Week 0 (before treatment)
[10] = 15 mg/kg/week, Week 0 (before treatment)
[11] = 50 mg/kg/week, Week 0 (before treatment)

With “CGGATGATTCTTGCTGGTAA (antisense e[5mC]*eG*eG*eA*eT*dG*dA*dT*dT*d[5mC]*dT*dT*dG*d[5mC]*dT*eG*eG*eT*eA*eA) [ISIS 447114]” the “abcA1 mRNA levels (effect of TTC39B inhibition)” value (ABCA1 mRNA) was −18.

For “GCAGCTCGATTCGGGCATGA (antisense eG*e[5mC]*eA*eG*e[5mC]*dT*d[5mC]*dG*dA*dT*dT*d[5mC]*dG*dG*dG*e[5mC]*eA*eT*eG*eA) [ISIS 447118]”, the “ApoA4 fold increase/decrease relative to PBS group” value ([1]; 1.5 mg/kg) was 1.26 fold, the “ApoA4 fold increase/decrease relative to PBS group” value ([1]; 5 mg/kg) was 1.38 fold and the “ApoA4 fold increase/decrease relative to PBS group” value ([1]; 15 mg/kg) was 1.76 fold. The “ApoA4 fold increase/decrease relative to PBS group” value ([1]; 50 mg/kg) was 2.7 fold, the “HDL cholesterol % increase on week 6 (% change over baseline)” value ([2]; 1.5 mg/kg/week) was 36% and the HDL cholesterol levels [2, 8] was 75 mg/dL. It also gave an LDL cholesterol levels [2, 8] of 115 mg/dL, a total cholesterol levels [2, 8] of 227 mg/dL and a triglyceride levels [2, 8] of 126 mg/dL. For the same sequence, the HDL cholesterol levels ([2]; 1.5 mg/kg/week, Week 3) was 71 mg/dL, the LDL cholesterol levels ([2]; 1.5 mg/kg/week, Week 3) was 116 mg/dL and the total cholesterol levels ([2]; 1.5 mg/kg/week, Week 3) was 217 mg/dL. The triglyceride levels ([2]; 1.5 mg/kg/week, Week 3) was 107 mg/dL, the HDL cholesterol levels ([2]; 1.5 mg/kg/week, Week 6) was 101 mg/dL and the LDL cholesterol levels ([2]; 1.5 mg/kg/week, Week 6) was 131 mg/dL. The total cholesterol levels ([2]; 1.5 mg/kg/week, Week 6) was 247 mg/dL, the triglyceride levels ([2]; 1.5 mg/kg/week, Week 6) was 142 mg/dL and the “HDL cholesterol % increase on week 6 (% change over baseline)” value ([2]; 5 mg/kg/week) was 28%. The HDL cholesterol levels [2, 9] was 88 mg/dL, the LDL cholesterol levels [2, 9] was 112 mg/dL and the total cholesterol levels [2, 9] was 234 mg/dL. For the same sequence, the triglyceride levels [2, 9] was 118 mg/dL, the HDL cholesterol levels ([2]; 5 mg/kg/week, Week 3) was 83 mg/dL and the LDL cholesterol levels ([2]; 5 mg/kg/week, Week 3) was 120 mg/dL. It also gave a total cholesterol levels ([2]; 5 mg/kg/week, Week 3) of 232 mg/dL, a triglyceride levels ([2]; 5 mg/kg/week, Week 3) of 122 mg/dL and an HDL cholesterol levels ([2]; 5 mg/kg/week, Week 6) of 112 mg/dL. The LDL cholesterol levels ([2]; 5 mg/kg/week, Week 6) was 130 mg/dL, the total cholesterol levels ([2]; 5 mg/kg/week, Week 6) was 261 mg/dL and the triglyceride levels ([2]; 5 mg/kg/week, Week 6) was 149 mg/dL. For the same sequence, the “HDL cholesterol % increase on week 6 (% change over baseline)” value ([2]; 15 mg/kg/week) was 45%, the HDL cholesterol levels [2, 10] was 84 mg/dL and the LDL cholesterol levels [2, 10] was 122 mg/dL. It also gave a total cholesterol levels [2, 10] of 239 mg/dL, a triglyceride levels [2, 10] of 120 mg/dL and an HDL cholesterol levels ([2]; 15 mg/kg/week, Week 3) of 82 mg/dL. The LDL cholesterol levels ([2]; 15 mg/kg/week, Week 3) was 133 mg/dL, the total cholesterol levels ([2]; 15 mg/kg/week, Week 3) was 249 mg/dL and the triglyceride levels ([2]; 15 mg/kg/week, Week 3) was 126 mg/dL. For the same sequence, the HDL cholesterol levels ([2]; 15 mg/kg/week, Week 6) was 122 mg/dL, the LDL cholesterol levels ([2]; 15 mg/kg/week, Week 6) was 158 mg/dL and the total cholesterol levels ([2]; 15 mg/kg/week, Week 6) was 294 mg/dL. For the same sequence, the triglyceride levels ([2]; 15 mg/kg/week, Week 6) was 131 mg/dL, the “HDL cholesterol % increase on week 6 (% change over baseline)” value ([2]; 50 mg/kg/week) was 58% and the HDL cholesterol levels [2, 11] was 78 mg/dL. For the same sequence, the LDL cholesterol levels [2, 11] was 99 mg/dL, the total cholesterol levels [2, 11] was 207 mg/dL and the triglyceride levels [2, 11] was 98 mg/dL. For the same sequence, the HDL cholesterol levels ([2]; 50 mg/kg/week, Week 3) was 85 mg/dL, the LDL cholesterol levels ([2]; 50 mg/kg/week, Week 3) was 111 mg/dL and the total cholesterol levels ([2]; 50 mg/kg/week, Week 3) was 224 mg/dL. The triglyceride levels ([2]; 50 mg/kg/week, Week 3) was 96 mg/dL, the HDL cholesterol levels ([2]; 50 mg/kg/week, Week 6) was 124 mg/dL and the LDL cholesterol levels ([2]; 50 mg/kg/week, Week 6) was 146 mg/dL. For the same sequence, the total cholesterol levels ([2]; 50 mg/kg/week, Week 6) was 282 mg/dL, the triglyceride levels ([2]; 50 mg/kg/week, Week 6) was 115 mg/dL and the “Pcsk9 fold increase/decrease relative to PBS group” value ([3]; 1.5 mg/kg) was 0.83 fold. For the same sequence, the “Pcsk9 fold increase/decrease relative to PBS group” value ([3]; 5 mg/kg) was 0.66 fold, the “Pcsk9 fold increase/decrease relative to PBS group” value ([3]; 15 mg/kg) was 0.4 fold and the “Pcsk9 fold increase/decrease relative to PBS group” value ([3]; 50 mg/kg) was 0.23 fold. The “abcA1 mRNA levels (effect of TTC39B inhibition)” value (ABCA1 mRNA) was −2, the “Mvd fold increase/decrease relative to PBS group” value ([4]; 1.5 mg/kg) was 0.81 fold and the “Mvd fold increase/decrease relative to PBS group” value ([4]; 5 mg/kg) was 0.7 fold. For the same sequence, the “Mvd fold increase/decrease relative to PBS group” value ([4]; 15 mg/kg) was 0.56 fold, the “Mvd fold increase/decrease relative to PBS group” value ([4]; 50 mg/kg) was 0.67 fold and the “Osbpl5 fold increase/decrease relative to PBS group” value ([5]; 1.5 mg/kg) was 1.7 fold. For the same sequence, the “Osbpl5 fold increase/decrease relative to PBS group” value ([5]; 5 mg/kg) was 2.34 fold, the “Osbpl5 fold increase/decrease relative to PBS group” value ([5]; 15 mg/kg) was 3.11 fold and the “Osbpl5 fold increase/decrease relative to PBS group” value ([5]; 50 mg/kg) was 2.11 fold. The “Stab1 fold increase/decrease relative to PBS group” value (Stabilin 1 (Stab1) mRNA; 1.5 mg/kg) was 1.15 fold, the “Stab1 fold increase/decrease relative to PBS group” value (Stabilin 1 (Stab1) mRNA; 5 mg/kg) was 1.19 fold and the “Stab1 fold increase/decrease relative to PBS group” value (Stabilin 1 (Stab1) mRNA; 15 mg/kg) was 1.35 fold. For the same sequence, the “Stab1 fold increase/decrease relative to PBS group” value (Stabilin 1 (Stab1) mRNA; 50 mg/kg) was 1.53 fold, the “Ldlr fold increase/decrease relative to PBS group” value ([6]; 1.5 mg/kg) was 1.43 fold and the “Ldlr fold increase/decrease relative to PBS group” value ([6]; 5 mg/kg) was 1.28 fold. The “Ldlr fold increase/decrease relative to PBS group” value ([6]; 15 mg/kg) was 1.79 fold, the “Ldlr fold increase/decrease relative to PBS group” value ([6]; 50 mg/kg) was 2.87 fold and the “Soat2 fold increase/decrease relative to PBS group” value ([7]; 1.5 mg/kg) was 1.05 fold. The “Soat2 fold increase/decrease relative to PBS group” value ([7]; 5 mg/kg) was 0.88 fold, the “Soat2 fold increase/decrease relative to PBS group” value ([7]; 15 mg/kg) was 1.36 fold and the “Soat2 fold increase/decrease relative to PBS group” value ([7]; 50 mg/kg) was 1.79 fold.

In the case of “GCCACCAGTGCCTGCTGAGC (antisense eG*e[5mC]*e[5mC]*eA*e[5mC]*d[5mC]*dA*dG*dT*dG*d[5mC]*d[5mC]*dT*dG*d[5mC]*eT*eG*eA*eG*e[5mC]) [ISIS 447143]”, the “abcA1 mRNA levels (effect of TTC39B inhibition)” value (ABCA1 mRNA) is reported as −17.

In the case of “TATTTCTATAGCTCATGACA (antisense eT*eA*eT*eT*eT*d[5mC]*dT*dA*dT*dA*dG*d[5mC]*dT*d[5mC]*dA*eT*eG*eA*e[5mC]*eA) [ISIS 447144]”, the “abcA1 mRNA levels (effect of TTC39B inhibition)” value (ABCA1 mRNA) is reported as 0.
